Consider 27 molecules from ChEMBL document CHEMBL1149492, “Discovery of potent and stable conformationally constrained analogues of the MCH R1 antagonist SB-568849” (Bioorg Med Chem Lett, 2006).

Data set [1] has as its target Melanin-concentrating hormone receptor 1 (Homo sapiens, UniProt Q99705). The data set can be described thus: Displacement of radiolabeled iodo-MCH from human MCHR1 expressed in HEK293 cells. The class given is cell-based.
Data set [2] can be described thus: Stability in aqueous phosphate buffer at pH 7. The class given is physicochemical.
A further data set concerns Liver microsomes. Put plainly: Intrinsic clearance in human liver microsome. In kind it is ADME. On the technique in general: Liver microsomes are vesicles of endoplasmic reticulum, rich in cytochrome P450 enzymes.

Each structure is given as a SMILES string.

Sequence of Melanin-concentrating hormone receptor 1 (Q99705 whole entry): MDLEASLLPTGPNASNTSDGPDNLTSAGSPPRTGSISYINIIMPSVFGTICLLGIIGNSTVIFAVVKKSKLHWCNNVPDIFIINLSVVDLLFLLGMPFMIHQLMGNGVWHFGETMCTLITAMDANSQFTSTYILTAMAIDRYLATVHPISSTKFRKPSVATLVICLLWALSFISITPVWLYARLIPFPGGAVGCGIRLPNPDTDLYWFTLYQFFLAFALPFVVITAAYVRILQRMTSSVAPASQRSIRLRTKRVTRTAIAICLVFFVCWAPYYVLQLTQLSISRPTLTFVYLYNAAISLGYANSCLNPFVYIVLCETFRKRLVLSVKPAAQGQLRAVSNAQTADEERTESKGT

One may read the Ki as the equilibrium dissociation constant of an inhibitor or competing ligand from its target. A high value points to lower affinity. `COc1cc(NC(=O)c2ccc(C3CCCCC3)cc2)ccc1OC12CCCN(CC1)C2` (centres undefined): in data set [1], the affinity, expressed as Ki, was 50.1 nM.

The molecule `CCN1CCN(c2ccc(NC(=O)c3ccc(C4CCCCC4)cc3)cc2OC)CC1` showed a Ki in data set [1] of 79.4 nM.

In data set [1], `COc1cc(-n2nnc3ccc(Oc4ccccc4)cc3c2=O)ccc1OCCN1CCCC1` gave an inhibition constant Ki of 39.8 nM.

Molecule `COc1cc(-n2cnc3sc(-c4ccccc4)cc3c2=O)ccc1OCCN1CCCC1` had a Ki in data set [1] of 794 nM.

In data set [1], `COc1cc(-n2cnc3cc(-c4ccccc4)sc3c2=O)ccc1OCCN1CCCC1` showed a Ki of 20 nM. In data set [2], the Stability entry is “Stable”.

The molecule `O=C(Nc1ccc(OCCN2CCCC2)cc1)c1ccc2oc3ccccc3c2c1` had a Ki in data set [1] of 2510 nM.

In data set [1], `CC(C)N(CCOc1ccc(N(C)C(=O)c2ccc3c(c2)CCc2ccccc2-3)cc1)C(C)C` showed an inhibitory constant (Ki) of 316 nM.

In turn, `O=C(Nc1ccc(OCCN2CCCC2)cc1)c1ccc2c(c1)CCc1ccccc1-2` gave a Ki in data set [1] of 1000 nM.

`COc1cc(N2Cc3ccc(-c4ccccc4)cc3C2=O)ccc1OCCN(C(C)C)C(C)C`: the inhibitory constant (Ki) in data set [1] was 398 nM.

Turning to `COc1cc(-n2cnc3cc(Oc4ccccc4)ccc3c2=O)ccc1OCCN1CCCC1`, in data set [1], the affinity corresponds to a Ki of 50.1 nM.

Take `COc1cc(N2C(=O)c3ccc(Oc4ccccc4)cc3C2=O)ccc1OCCN1CCCC1`: the Activity entry in data set [2] was “Not Active”.

In the case of `CC(C)N(CCOc1ccc(NC(=O)c2ccc3c(c2)C(=O)c2ccccc2-3)cc1)C(C)C`, in data set [1], the Ki is 200 nM.

Turning to `COc1cc(-n2nnc3cc(Oc4ccccc4)ccc3c2=O)ccc1OCCN1CCCC1`, in data set [1], the Ki is 79.4 nM.

Take `COc1cc(N2C(=O)c3ccc(Sc4ccccc4)cc3C2=O)ccc1OCCN1CCCC1`: in data set [1], the inhibition constant Ki is 31.6 nM. Also, the Activity result in data set [2] is “Not Active”.

`COc1cc(-n2cnc3ccc(Oc4ccccc4)cc3c2=O)ccc1OCCN1CCCC1` had a Ki in data set [1] of 316 nM.

As to `COc1cc(NC(=O)c2ccc(C3CCCCC3)cc2)ccc1OC1CCN(C)C1` (centres undefined), the Ki in data set [1] is 63.1 nM.

With `CC(C)N(CCOc1ccc(N(C)C(=O)c2ccc3c(c2)Cc2ccccc2-3)cc1)C(C)C`, the Ki in data set [1] was 398 nM.

The molecule `COc1cc(NC(=O)c2ccc(C3CCCCC3)cc2)ccc1OC[C@@H]1CCCN1C` showed an inhibition constant Ki in data set [1] of 39.8 nM.

Regarding `COc1cc(NC(=O)c2ccc(C3CCCCC3)cc2)ccc1O[C@H]1CCCC[C@@H]1N(C)C`, affinity in data set [1] was put at a Ki of 2510 nM.

Consider `COc1cc(-n2nnc3cc(-c4ccccc4)ccc3c2=O)ccc1OCCN1CCCC1`, for which affinity in data set [1] was put at a Ki of 25.1 nM. For the same molecule, the Stability result in data set [2] is listed as “Stable”. In addition, in the data set on Liver microsomes, the CL was less than 1.5 mL/min/g.

In data set [1], `COc1cc(NC(=O)c2ccc(C3CCCCC3)cc2)ccc1OC[C@H]1CCCN1C` had a Ki of 79.4 nM.

The molecule `COc1cc(N2C(=O)c3ccc(Nc4ccccc4)cc3C2=O)ccc1OCCN1CCCC1` gave a Ki in data set [1] of 15.8 nM. Further, the Activity entry in data set [2] is “Not Active”.

`COc1cc(-n2cnc3ccc(-c4ccc(Cl)cc4)cc3c2=O)ccc1OCCN1CCCC1`: in data set [1], the Ki is 1000 nM.

As to `COc1cc(-n2cnc3cc(-c4ccccc4)ccc3c2=O)ccc1OCCN1CCCC1`, in data set [1], the inhibition constant (Ki) is 20 nM. Moreover, the Stability result in data set [2] is given as “Stable”. The same molecule registered a CL in the data set on Liver microsomes of less than 1.5 mL/min/g.

Regarding `O=C(Nc1ccc(OCCN2CCCC2)cc1)c1ccc2c(c1)Cc1ccccc1-2`, the inhibition constant (Ki) in data set [1] was 501 nM.

Take `COc1cc(N2C(=O)c3ccc(-c4ccccc4)cc3C2=O)ccc1OCCN(C(C)C)C(C)C`: the Ki in data set [1] was 126 nM.

In data set [1], `COc1cc(N(C)C(=O)c2ccc3oc4ccccc4c3c2)ccc1OCCN(C(C)C)C(C)C` showed a Ki of 2000 nM.
